# Experimental data from PubChem BioAssay (NCI).
#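 Interpolation was linear, between the two tested concentrations surrounding the appropriate level; five concentrations were tested over 48 hours in 96-well plates. TGI marks complete inhibition of growth.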
# What was measured:
# Assay in all cases: NCI-60 cell line screen, 48 h
# CCRF-CEM leukemia = tested on: CCRF-CEM leukemia
# A549 NSCLC = tested on: A549 NSCLC
# HS 578T breast = tested on: HS 578T breast
# SN12C renal = tested on: SN12C renal
# NCI-H460 lung = tested on: NCI-H460 lung
# MDA-MB-231 breast = tested on: MDA-MB-231 breast
# COLO 205 colon = tested on: COLO 205 colon
# MOLT-4 leukemia = tested on: MOLT-4 leukemia
# SK-MEL-5 melanoma = tested on: SK-MEL-5 melanoma
# SK-OV-3 ovarian = tested on: SK-OV-3 ovarian
# SNB-75 CNS = tested on: SNB-75 CNS
# DU-145 prostate = tested on: DU-145 prostate
# KM12 colon = tested on: KM12 colon
# HCT-15 colon = tested on: HCT-15 colon
# HCC-2998 colon = tested on: HCC-2998 colon
# RPMI-8226 leukemia = tested on: RPMI-8226 leukemia
# UACC-62 melanoma = tested on: UACC-62 melanoma
# PC-3 prostate = tested on: PC-3 prostate
# SW-620 colon = tested on: SW-620 colon
# NCI/ADR-RES ovarian = tested on: NCI/ADR-RES ovarian
# RXF 393 renal = tested on: RXF 393 renal
# NCI-H23 lung = tested on: NCI-H23 lung
# TK-10 renal = tested on: TK-10 renal
# BT-549 breast = tested on: BT-549 breast
# MALME-3M melanoma = tested on: MALME-3M melanoma
# HOP-92 NSCLC = tested on: HOP-92 NSCLC
# OVCAR-4 ovarian = tested on: OVCAR-4 ovarian
# MCF7 breast = tested on: MCF7 breast
# EKVX NSCLC = tested on: EKVX NSCLC
# OVCAR-8 ovarian = tested on: OVCAR-8 ovarian
# HOP-62 NSCLC = tested on: HOP-62 NSCLC
# LOX IMVI melanoma = tested on: LOX IMVI melanoma
# U251 CNS = tested on: U251 CNS
# UO-31 renal = tested on: UO-31 renal
# SK-MEL-2 melanoma = tested on: SK-MEL-2 melanoma
# HL-60(TB) leukemia = tested on: HL-60(TB) leukemia
# SK-MEL-28 melanoma = tested on: SK-MEL-28 melanoma
# A498 renal = tested on: A498 renal
# SF-295 CNS = tested on: SF-295 CNS
# SNB-19 CNS = tested on: SNB-19 CNS
# CAKI-1 renal = tested on: CAKI-1 renal
# NCI-H226 lung = tested on: NCI-H226 lung
# MDA-N = tested on: MDA-N
# OVCAR-5 ovarian = tested on: OVCAR-5 ovarian
# IGROV1 ovarian = tested on: IGROV1 ovarian
# T-47D breast = tested on: T-47D breast
# K-562 leukemia = tested on: K-562 leukemia
# 786-0 renal = tested on: 786-0 renal
# SF-539 CNS = tested on: SF-539 CNS
# HCT-116 colon = tested on: HCT-116 colon
# ACHN renal = tested on: ACHN renal
# UACC-257 melanoma = tested on: UACC-257 melanoma
# M14 melanoma = tested on: M14 melanoma
# MDA-MB-435 = tested on: MDA-MB-435
# HT29 colon = tested on: HT29 colon
# SF-268 CNS = tested on: SF-268 CNS
# OVCAR-3 ovarian = tested on: OVCAR-3 ovarian
# SR leukemia = tested on: SR leukemia
# NCI-H522 lung = tested on: NCI-H522 lung
structure (smiles),measurement,setting,value
COc1ccc(-c2nc3ccccc3c(=S)n2OC(C)=O)cc1,TGI,CCRF-CEM leukemia,> 25 µM
same,TGI,A549 NSCLC,> 25 µM
same,TGI,HS 578T breast,> 25 µM
same,TGI,SN12C renal,> 25 µM
same,TGI,NCI-H460 lung,> 25 µM
same,TGI,MDA-MB-231 breast,> 25 µM
same,TGI,COLO 205 colon,> 25 µM
same,TGI,MOLT-4 leukemia,> 25 µM
same,TGI,SK-MEL-5 melanoma,> 25 µM
same,TGI,SK-OV-3 ovarian,> 25 µM
same,TGI,SNB-75 CNS,> 25 µM
same,TGI,DU-145 prostate,> 25 µM
same,TGI,KM12 colon,> 25 µM
same,TGI,HCT-15 colon,> 25 µM
same,TGI,HCC-2998 colon,> 25 µM
same,TGI,RPMI-8226 leukemia,> 25 µM
same,TGI,UACC-62 melanoma,> 25 µM
same,TGI,PC-3 prostate,> 25 µM
same,TGI,SW-620 colon,> 25 µM
same,TGI,NCI/ADR-RES ovarian,> 25 µM
same,TGI,RXF 393 renal,> 25 µM
same,TGI,NCI-H23 lung,> 25 µM
same,TGI,TK-10 renal,> 25 µM
same,TGI,BT-549 breast,> 25 µM
same,TGI,MALME-3M melanoma,20.4 µM
same,TGI,HOP-92 NSCLC,> 25 µM
same,TGI,OVCAR-4 ovarian,> 25 µM
same,TGI,MCF7 breast,> 25 µM
same,TGI,EKVX NSCLC,> 25 µM
same,TGI,OVCAR-8 ovarian,> 25 µM
same,TGI,HOP-62 NSCLC,> 25 µM
same,TGI,LOX IMVI melanoma,> 25 µM
same,TGI,U251 CNS,> 25 µM
same,TGI,UO-31 renal,> 25 µM
same,TGI,SK-MEL-2 melanoma,> 25 µM
same,TGI,HL-60(TB) leukemia,17.2 µM
same,TGI,SK-MEL-28 melanoma,> 25 µM
same,TGI,A498 renal,> 25 µM
same,TGI,SF-295 CNS,> 25 µM
same,TGI,SNB-19 CNS,> 25 µM
same,TGI,CAKI-1 renal,> 25 µM
same,TGI,NCI-H226 lung,> 25 µM
same,TGI,MDA-N,> 25 µM
same,TGI,OVCAR-5 ovarian,> 25 µM
same,TGI,IGROV1 ovarian,> 25 µM
same,TGI,T-47D breast,> 25 µM
same,TGI,K-562 leukemia,> 25 µM
same,TGI,786-0 renal,> 25 µM
same,TGI,SF-539 CNS,> 25 µM
same,TGI,HCT-116 colon,> 25 µM
same,TGI,ACHN renal,> 25 µM
same,TGI,UACC-257 melanoma,> 25 µM
same,TGI,M14 melanoma,> 25 µM
same,TGI,MDA-MB-435,> 25 µM
same,TGI,HT29 colon,> 25 µM
same,TGI,SF-268 CNS,> 25 µM
C=C1C(=O)[C@@]23CC[C@@H]4[C@@]5(C)CCC[C@@]4(OC5=O)[C@@]2(C)CC[C@@H]1C3,TGI,CCRF-CEM leukemia,> 33.7 µM
same,TGI,A549 NSCLC,36.3 µM
same,TGI,HS 578T breast,> 54 µM
same,TGI,SN12C renal,23.5 µM
same,TGI,NCI-H460 lung,3.74 µM
same,TGI,MOLT-4 leukemia,> 26.1 µM
same,TGI,SK-MEL-5 melanoma,3.49 µM
same,TGI,SK-OV-3 ovarian,23.3 µM
same,TGI,SNB-75 CNS,13.1 µM
same,TGI,DU-145 prostate,12.2 µM
same,TGI,KM12 colon,10.2 µM
same,TGI,HCT-15 colon,2.44 µM
same,TGI,HCC-2998 colon,5.56 µM
same,TGI,UACC-62 melanoma,3.3 µM
same,TGI,PC-3 prostate,5.31 µM
same,TGI,NCI/ADR-RES ovarian,21.4 µM
same,TGI,RXF 393 renal,3.25 µM
same,TGI,NCI-H23 lung,4.49 µM
same,TGI,TK-10 renal,2.44 µM
same,TGI,BT-549 breast,3.24 µM
same,TGI,MALME-3M melanoma,5.31 µM
same,TGI,HOP-92 NSCLC,57.7 µM
same,TGI,OVCAR-4 ovarian,5.28 µM
same,TGI,MCF7 breast,2.21 µM
same,TGI,EKVX NSCLC,11.8 µM
same,TGI,OVCAR-8 ovarian,8.54 µM
same,TGI,HOP-62 NSCLC,> 23.7 µM
same,TGI,LOX IMVI melanoma,2.96 µM
same,TGI,U251 CNS,7.05 µM
same,TGI,UO-31 renal,3.43 µM
same,TGI,SK-MEL-2 melanoma,8.12 µM
same,TGI,HL-60(TB) leukemia,> 100 µM
same,TGI,SK-MEL-28 melanoma,10.3 µM
same,TGI,A498 renal,11.8 µM
same,TGI,OVCAR-3 ovarian,3.95 µM
same,TGI,SF-295 CNS,20.9 µM
same,TGI,SNB-19 CNS,9.08 µM
same,TGI,CAKI-1 renal,2.32 µM
same,TGI,NCI-H226 lung,9.15 µM
same,TGI,MDA-N,> 100 µM
same,TGI,OVCAR-5 ovarian,6.27 µM
same,TGI,IGROV1 ovarian,4.99 µM
same,TGI,T-47D breast,57.9 µM
same,TGI,SR leukemia,> 100 µM
same,TGI,786-0 renal,2.55 µM
same,TGI,SF-539 CNS,6.3 µM
same,TGI,HCT-116 colon,2.92 µM
same,TGI,ACHN renal,2.64 µM
same,TGI,UACC-257 melanoma,4.06 µM
same,TGI,NCI-H522 lung,2.43 µM
same,TGI,MDA-MB-435,13.7 µM
same,TGI,HT29 colon,10.6 µM
same,TGI,SF-268 CNS,6.12 µM
